Key:
Assay in all cases: biochemical
ABL1-Phos. = ABL1-Phos. (Homo sapiens, UniProt P00519)
ABL1-non-Phos. = ABL1-non-Phos. (Homo sapiens, UniProt P00519)
MEK5 = target: T1, MEK5 (Homo sapiens, UniProt Q13163)
T1 sequence (Q13163 1-448): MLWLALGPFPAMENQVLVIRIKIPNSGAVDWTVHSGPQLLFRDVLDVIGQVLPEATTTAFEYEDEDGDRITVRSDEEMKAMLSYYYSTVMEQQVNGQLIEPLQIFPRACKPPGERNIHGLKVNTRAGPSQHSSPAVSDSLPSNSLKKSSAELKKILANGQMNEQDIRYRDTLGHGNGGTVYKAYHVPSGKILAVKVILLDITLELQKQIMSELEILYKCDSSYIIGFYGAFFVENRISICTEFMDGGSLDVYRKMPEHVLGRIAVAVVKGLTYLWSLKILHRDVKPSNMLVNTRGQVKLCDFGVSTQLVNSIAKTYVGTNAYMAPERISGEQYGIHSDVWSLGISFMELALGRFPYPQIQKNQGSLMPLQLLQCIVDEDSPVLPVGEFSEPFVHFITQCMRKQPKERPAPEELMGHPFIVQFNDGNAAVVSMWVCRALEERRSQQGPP

EphA8 = target: T2, EphA8 (Homo sapiens, UniProt P29322)
T2 sequence (P29322 1-1005): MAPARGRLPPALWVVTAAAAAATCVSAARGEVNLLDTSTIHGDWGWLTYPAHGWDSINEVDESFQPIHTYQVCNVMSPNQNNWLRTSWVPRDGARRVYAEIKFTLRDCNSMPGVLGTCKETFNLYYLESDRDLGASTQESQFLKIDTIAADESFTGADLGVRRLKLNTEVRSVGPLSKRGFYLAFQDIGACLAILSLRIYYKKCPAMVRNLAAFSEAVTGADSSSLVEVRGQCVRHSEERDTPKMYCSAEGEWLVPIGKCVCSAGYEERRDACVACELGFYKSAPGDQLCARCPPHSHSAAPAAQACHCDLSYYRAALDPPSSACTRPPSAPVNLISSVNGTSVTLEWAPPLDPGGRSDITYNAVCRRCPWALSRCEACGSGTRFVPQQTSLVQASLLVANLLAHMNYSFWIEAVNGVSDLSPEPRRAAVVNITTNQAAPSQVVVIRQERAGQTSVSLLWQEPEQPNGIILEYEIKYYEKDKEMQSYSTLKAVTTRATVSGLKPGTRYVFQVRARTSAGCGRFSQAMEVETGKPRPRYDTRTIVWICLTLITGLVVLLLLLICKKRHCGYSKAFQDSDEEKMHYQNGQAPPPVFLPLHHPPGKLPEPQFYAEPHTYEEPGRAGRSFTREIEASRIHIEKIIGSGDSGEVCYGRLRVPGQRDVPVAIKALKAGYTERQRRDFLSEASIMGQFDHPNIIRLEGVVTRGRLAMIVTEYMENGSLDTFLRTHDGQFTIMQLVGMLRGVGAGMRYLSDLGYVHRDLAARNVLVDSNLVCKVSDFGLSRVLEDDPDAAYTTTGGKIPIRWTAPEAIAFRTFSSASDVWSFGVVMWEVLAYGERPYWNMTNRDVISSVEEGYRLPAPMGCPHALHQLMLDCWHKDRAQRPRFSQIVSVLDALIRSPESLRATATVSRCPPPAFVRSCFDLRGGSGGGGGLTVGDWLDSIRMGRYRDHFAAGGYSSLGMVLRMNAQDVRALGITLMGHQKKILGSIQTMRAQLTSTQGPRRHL

EphB6 = target: T3, EphB6 (Homo sapiens, UniProt O15197)
T3 sequence (O15197 1-1021): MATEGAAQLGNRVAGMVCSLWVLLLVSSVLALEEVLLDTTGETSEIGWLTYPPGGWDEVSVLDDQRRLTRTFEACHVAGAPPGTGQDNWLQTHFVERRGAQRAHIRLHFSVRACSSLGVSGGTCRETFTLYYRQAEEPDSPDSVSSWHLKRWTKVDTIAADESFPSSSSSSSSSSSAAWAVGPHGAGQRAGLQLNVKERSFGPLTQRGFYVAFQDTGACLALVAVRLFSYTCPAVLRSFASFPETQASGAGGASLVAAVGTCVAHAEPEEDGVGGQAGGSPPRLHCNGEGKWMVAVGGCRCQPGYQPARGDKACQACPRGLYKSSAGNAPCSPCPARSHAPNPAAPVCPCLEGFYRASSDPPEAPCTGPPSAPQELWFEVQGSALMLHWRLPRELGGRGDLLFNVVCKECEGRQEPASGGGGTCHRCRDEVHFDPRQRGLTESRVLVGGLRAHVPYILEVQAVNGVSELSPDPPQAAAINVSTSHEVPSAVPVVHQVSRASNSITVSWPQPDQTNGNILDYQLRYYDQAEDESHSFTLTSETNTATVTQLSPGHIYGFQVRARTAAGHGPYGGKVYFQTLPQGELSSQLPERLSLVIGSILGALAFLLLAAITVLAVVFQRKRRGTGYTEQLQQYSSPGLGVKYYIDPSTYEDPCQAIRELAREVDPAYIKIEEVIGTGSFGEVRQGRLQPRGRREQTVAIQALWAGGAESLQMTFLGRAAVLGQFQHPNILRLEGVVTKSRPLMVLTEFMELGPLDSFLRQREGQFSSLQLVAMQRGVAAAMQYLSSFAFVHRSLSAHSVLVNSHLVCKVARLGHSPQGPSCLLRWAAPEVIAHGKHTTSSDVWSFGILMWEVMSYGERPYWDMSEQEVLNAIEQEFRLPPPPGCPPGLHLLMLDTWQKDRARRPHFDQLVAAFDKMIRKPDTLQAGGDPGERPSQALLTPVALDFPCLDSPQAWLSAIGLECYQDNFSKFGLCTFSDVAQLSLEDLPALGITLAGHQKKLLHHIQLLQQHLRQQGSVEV

Measured: Kd

ABL1-Phos., sequence (P00519 whole entry): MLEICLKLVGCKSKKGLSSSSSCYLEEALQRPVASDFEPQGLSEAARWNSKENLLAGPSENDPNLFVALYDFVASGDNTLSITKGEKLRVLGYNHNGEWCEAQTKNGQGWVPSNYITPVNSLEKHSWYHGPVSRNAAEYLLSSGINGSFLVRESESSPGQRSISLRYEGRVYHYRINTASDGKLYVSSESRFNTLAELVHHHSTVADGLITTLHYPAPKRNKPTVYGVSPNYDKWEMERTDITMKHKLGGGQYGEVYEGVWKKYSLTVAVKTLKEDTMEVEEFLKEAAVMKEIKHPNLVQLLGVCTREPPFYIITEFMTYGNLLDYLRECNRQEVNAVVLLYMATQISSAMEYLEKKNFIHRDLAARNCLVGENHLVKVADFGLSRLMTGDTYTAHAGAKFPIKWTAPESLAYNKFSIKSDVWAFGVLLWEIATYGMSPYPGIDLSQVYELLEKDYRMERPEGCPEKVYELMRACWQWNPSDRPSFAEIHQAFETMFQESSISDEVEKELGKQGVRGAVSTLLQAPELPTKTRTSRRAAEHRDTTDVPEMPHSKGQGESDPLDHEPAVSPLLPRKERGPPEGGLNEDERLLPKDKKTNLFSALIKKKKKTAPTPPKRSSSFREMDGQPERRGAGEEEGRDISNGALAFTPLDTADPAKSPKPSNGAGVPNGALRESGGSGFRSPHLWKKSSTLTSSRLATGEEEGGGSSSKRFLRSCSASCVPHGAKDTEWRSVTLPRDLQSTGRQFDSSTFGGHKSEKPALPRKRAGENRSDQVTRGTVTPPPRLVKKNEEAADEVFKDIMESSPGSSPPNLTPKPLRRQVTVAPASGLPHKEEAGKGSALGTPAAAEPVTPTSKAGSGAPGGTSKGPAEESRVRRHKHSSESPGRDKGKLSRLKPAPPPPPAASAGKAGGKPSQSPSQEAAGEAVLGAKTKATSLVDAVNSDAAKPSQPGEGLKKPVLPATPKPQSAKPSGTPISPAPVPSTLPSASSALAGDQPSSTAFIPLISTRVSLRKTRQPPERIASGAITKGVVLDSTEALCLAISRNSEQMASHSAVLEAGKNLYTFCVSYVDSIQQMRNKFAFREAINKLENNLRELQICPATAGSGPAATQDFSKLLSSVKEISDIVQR
ABL1-non-Phos., sequence (P00519 whole entry): as above

COc1cc(N(C)c2ccnc3ccc(C(F)(F)F)cc23)cc(OC)c1OC [compound 21, negative control (21)]
> 10 µM: all assays above

— doi:10.1101/471615v1 (biorxiv, 2018)
